Data: the NIST ThermoML archive (doi:10.1016/j.fluid.2017.10.034)

Assay: xn = mol fraction of the nth substance listed
Conditions: Liquid, Vibrating tube method

[Cl-].[Na+] [sodium chloride] + O
mass density [kg/m3]
Conditions	x1 = 0.0099	x1 = 0.0196	x1 = 0.0291	x1 = 0.0385	x1 = 0.0476	x1 = 0.0566	x1 = 0.0654
288.15 K	1022.2	1044.7	1065.8	1086.7	1107.4	1127.2	1147.1
293.15 K	1021	1043.2	1064.1	1084.8	1105.4	1125	1144.8
298.15 K	–	1041.6	1062.3	1082.8	1103.3	1122.7	1142.4
308.15 K	1016.2	1037.8	1058.2	1078.5	1098.7	1118	1137.4
318.15 K	1012.1	1033.5	1053.6	1073.7	1093.8	1112.9	1132.2

[Cl-].[Na+] [sodium chloride] + CO
mass density [kg/m3]
Conditions	x1 = 0.001	x1 = 0.002	x1 = 0.003	x1 = 0.004	x1 = 0.005	x1 = 0.006	x1 = 0.007
288.15 K	797.4	798.9	800.1	801.4	802.9	804.1	805.7
293.15 K	792.7	794.3	795.5	796.8	798.3	799.5	801.1
298.15 K	788	789.6	790.8	792.1	793.7	794.9	796.4
308.15 K	778.6	780.2	781.4	782.7	784.3	785.5	787.1
318.15 K	769	770.7	771.9	773.3	774.8	776.1	777.7

[Cl-].[Cs+] [cesium chloride] + CO
mass density [kg/m3]
Conditions	288.15 K	293.15 K	298.15 K	308.15 K	318.15 K
x1 = 0.0012	800.8	796.1	791.3	781.8	772.3
x1 = 0.0025	805.5	800.8	796	786.5	776.9
x1 = 0.0037	809.9	805.2	800.5	791	781.4
x1 = 0.0049	814.5	809.8	805.1	795.5	785.9

[Cl-].[Cs+] [cesium chloride] + O
mass density [kg/m3]
Conditions	x1 = 0.0099	x1 = 0.0196	x1 = 0.0292	x1 = 0.0385	x1 = 0.0536	x1 = 0.069
288.15 K	1069.7	1137.3	1203.3	1266.2	1367	1466.9
293.15 K	1068.4	1135.8	1201.6	1264.2	1364.6	1464.1
298.15 K	1067	1134.1	1199.6	1262	1362.1	1461.3
308.15 K	1063.5	1130.1	1195.2	1257.3	1356.7	1455.3
318.15 K	1059.2	1125.5	1190.2	1252	1350.9	1448.6
